Legend:
[1] = test system: Lolium spp. resistant to HRAC group A; test: Greenhouse trial, post-emergence action against resistant ryegrass biotype (HRAC group A); type: in vivo; conditions: post-emergence (PO, BBCH 11), about 3 weeks after application
Method: (§1) In the standard design of the test, seeds of various broad-leaved weed and weed grass biotypes (origins) were sown in a 8-13 cm diameter pot filled with natural soil of a standard field soil (loamy silt; non-sterile) and covered with a covering soil layer of about 1 cm. The pots were then cultivated in a greenhouse (12-16 h light, temperature day 20-22° C., night 15-18° C.) until the time of application. The pots were treated on a laboratory track sprayer with spray liquors comprising the compositions according to the invention, mixtures of the prior art or components used individually. Application of the active compounds or active compound combinations formulated as WG, WP, EC or otherwise was carried out at the appropriate growth stages of the plants. The amount of water used for spray application was 100-600 l/ha. After the treatment, the plants were returned to the greenhouses.
(§2) About 3 weeks after the application, the soil action or/and foliar action was assessed visually according to a scale of 0-100% in comparison to an untreated comparative group: 0%=no noticable effect compared to the untreated comparative group; 100%=full effect compared to the untreated comparative group.
(§3) (Notes: the term “seeds” also includes vegetative propagation forms such as, for example, rhizome pieces; abbreviations used: h light=hours of illumination, g of AS/ha=grams of active substance per hectare, l/ha=liter per hectare, S=sensitive, R=resistant) • 1. Pre-emergence action against weeds: seeds of various broad-leaved weed and weed grass biotypes (origins) were sown in a 8-13 cm diameter pot filled with natural soil of a standard field soil (loamy silt; non-sterile) and covered with a covering soil layer of about 1 cm. The pots were then cultivated in a greenhouse (12-16 h light, temperature day 20-22° C., night 15-18° C.) until the time of application. […]

[2] = test system: Lolium spp. resistant to HRAC group B; test: Greenhouse trial, post-emergence action against resistant ryegrass biotype (HRAC group B); type: in vivo; conditions: post-emergence (PO, BBCH 11), about 3 weeks after application
Method: as §1, §2, §3

Nc1c([N+](=O)[O-])ccc(Oc2ccccc2)c1Cl [(A) aclonifen, 2-chloro-6-nitro-3-phenoxybenzenamine]
effect (visual scale 0-100% vs untreated) ([1]; 225 g of AS/ha): 25% | effect (visual scale 0-100% vs untreated) ([2]; 225 g of AS/ha): 50%

Cn1nc(C(F)(F)F)c(CS(=O)(=O)C2=NOC(C)(C)C2)c1OC(F)F [(B) pyroxasulfone, 3-[[[5-(difluoromethoxy)-1-methyl-3-(trifluoromethyl)-1H-pyrazol-4-yl]methyl]sulfonyl]-4,5-dihydro-5,5-dimethylisoxazole]
effect (visual scale 0-100% vs untreated) ([1]; 13 g of AS/ha): 45% | effect (visual scale 0-100% vs untreated) ([2]; 13 g of AS/ha): 70%

O=C(Nc1ccc(F)cc1)c1cccc(Oc2cccc(C(F)(F)F)c2)n1 [(C) picolinafen, N-(4-fluorophenyl)-6-[3-(trifluoromethyl)phenoxy]-2-pyridinecarboxamide]
effect (visual scale 0-100% vs untreated) ([1]; 25 g of AS/ha): 10% | effect (visual scale 0-100% vs untreated) ([2]; 25 g of AS/ha): 5%
